pIC50, pKi: −log10 of the molar value. Read-outs that look alike come from different tables or passages of the source.
Experiments:
humans = details: human, ref Shah et al., 2016, cited from earlier work
in vivo = experiment: in vivo; design: species or system rabbit; details: female, rabbit, in vivo, iv, read-out: free drug concentration
Method: (§1) All the other experimental groups were 100% female.
(§2) The anaesthetized methoxamine‐sensitized rabbit model of TdP is frequently used to study torsadogenic potential of drugs (Carlsson et al., 1990). Briefly, female animals were pre‐sensitized with i.v. infusion of methoxamine, an α1‐adrenoceptor agonist, delivered at 15 μg·kg^−1·min^−1 (6 mL·h^−1) over 70 min.

[1] = system: methoxamine‐sensitized rabbits; experiment: in vivo; design: species or system rabbit; details: pitolisant alone, 50 and 150 μg·kg^−1·min^−1 over 1 h
Method: as §1, §2

CaV3.2 = target: T1, CaV3.2 (Homo sapiens, UniProt O95180); experiment: Whole-cell patch clamp on CaV3.2 (ICaT); format: cell-based
T1 construct: expressed in transfected cells
Method: and CiPA Initiative Studies
=============================================================
In vitro studies on other ion channels […]
through NaV1.5, KV4.3, KV7.1/mink, Kir2.1, KV1.5, CaV1.2 and CaV3.2 channels.
35-mm dish culture in the conditions mentioned in standard cell culture conditions. Experiments were performed with a cell density enabling isolated cells for patch clamping. Cells were continuously superfused with extracellular medium (1-2 mL∙minute-1) at room temperature.
D-glucose 10, HEPES 10 and the final pH adjusted to 7.4±0.02 with NaOH for recording NaV1.5, KV4.3, KV7.1/mink, Kir2.1, KV1.5 and CaV3.2 currents. It was (in mM): NaCl 110, KCl 4, BaCl2 20, MgCl2 1, D-glucose 20, HEPES 10 and the final pH adjusted to 7.4 ± 0.02 with NaOH for recording the CaV1.2 current. Compositions of the intracellular solution to fill the pipette are […]
Composition of intracellular solutions used to fill pipette to record currents through NaV1.5, KV4.3, KV7.1/mink, Kir2.1, KV1.5, CaV1.2 and CaV3.2 channels
Solution to fill the pipette (mM)
Creatine-phospho kinase 50 U∙mL-1
After formation of a Gigaohm seal between the patch electrodes and individual cells (pipette resistance range: 2.0 MΩ - 7.0 MΩ; seal resistance range: > 1 GΩ) the cell membrane across the pipette tip was ruptured to assure electrical access to the cell interior (whole-cell patch-configuration). In case the quality of the seal was poor, the process of seal formation was repeated with a different cell and a new pipette. As soon as a stable seal was established outward tail currents were measured upon pulses described in the Table S2. If current density was judged to be too low for measurement, another cell was recorded. […]
voltage stimulation protocol indicated in the next table continuously run until the steady-state level of block was reached.
Stimulation conditions used to record currents through NaV1.5, KV4.3, KV7.1/mink, Kir2.1, KV1.5, CaV1.2 and CaV3.2 channels
Ion channel Holding potential Pulse / duration Frequency Reference compound […]
(resting / fast / slow sweeps at one (10 mM) inactivated concentration)

in vitro = details: human
α2B‐adrenoceptor = α2B‐adrenoceptor (Homo sapiens, UniProt P18089); experiment: Affinity at α2B-adrenoceptor; format: binding
Kv11.1 (hERG) channel = Kv11.1 (hERG) channel (Homo sapiens, UniProt Q12809); experiment: cell-based
Method: A whole‐cell patch clamp study was performed on isolated cells at room temperature. Cells were initially clamped at −80 mV, and biphasic pulses (4.8 s at +20 mV and then for 5 s at −50 mV) were applied at a 0.067 Hz frequency. […] Peak tail current amplitudes for each concentration were measured and averaged for four consecutive stimuli. Vehicle control tested in parallel evaluated the spontaneous run‐down of hERG current over time in testing conditions and the corresponding correction was applied.

[2] = human, 40 mg daily dosing; ref Shah et al., 2016; cited from earlier work
[3] = system: human stem cell‐derived cardiomyocytes; format: cell-based
Source text: . Human cardiomyocytes (Cor.4U®, Axiogenesis AG, Cologne, Germany) were derived from human iPSC. Preparations were stimulated at 0.5 Hz with 4 ms rectangular pulses from 1 to 1.5 times depolarization threshold to −60 mV. We studied RMP, APA, action potential durations measured at 20 and 90% repolarization (APD20 and APD90) and APD90‐APD20. […]

rabbit Purkinje fibres = experiment: Action potential parameters in rabbit Purkinje fibres; format: cell-based
Method: Following a lethal dose of pentobarbital, the hearts of male New Zealand rabbits were immediately excised and immersed in a modified Tyrode solution maintained at room temperature and previously saturated with O2/CO2 (95%/5%). A piece of ventricle containing free running Purkinje fibres was fixed to the silastic bottom of an organ bath perfused with the same solution maintained at 37°C for 30 min. The preparation was then superfused with the modified Tyrode solution and stimulated for 30 min at 2 Hz and then at 1 Hz (2 ms stimulus at twice threshold). […] After a stabilization period of at least 1 h, action potentials typical for Purkinje fibres were recorded. Action potential reproducibility and stability were confirmed during a further 20 min stabilization period. […] Each was applied for 20 min to enable steady state to be reached. In addition, the emergence of early after‐depolarizations (EADs), favoured by calcium loading during the late phase 2 of the prolonged action potential, is recognized as a better marker of pro‐arrhythmic potential than APD prolongation alone.

T1 sequence (O95180 whole entry): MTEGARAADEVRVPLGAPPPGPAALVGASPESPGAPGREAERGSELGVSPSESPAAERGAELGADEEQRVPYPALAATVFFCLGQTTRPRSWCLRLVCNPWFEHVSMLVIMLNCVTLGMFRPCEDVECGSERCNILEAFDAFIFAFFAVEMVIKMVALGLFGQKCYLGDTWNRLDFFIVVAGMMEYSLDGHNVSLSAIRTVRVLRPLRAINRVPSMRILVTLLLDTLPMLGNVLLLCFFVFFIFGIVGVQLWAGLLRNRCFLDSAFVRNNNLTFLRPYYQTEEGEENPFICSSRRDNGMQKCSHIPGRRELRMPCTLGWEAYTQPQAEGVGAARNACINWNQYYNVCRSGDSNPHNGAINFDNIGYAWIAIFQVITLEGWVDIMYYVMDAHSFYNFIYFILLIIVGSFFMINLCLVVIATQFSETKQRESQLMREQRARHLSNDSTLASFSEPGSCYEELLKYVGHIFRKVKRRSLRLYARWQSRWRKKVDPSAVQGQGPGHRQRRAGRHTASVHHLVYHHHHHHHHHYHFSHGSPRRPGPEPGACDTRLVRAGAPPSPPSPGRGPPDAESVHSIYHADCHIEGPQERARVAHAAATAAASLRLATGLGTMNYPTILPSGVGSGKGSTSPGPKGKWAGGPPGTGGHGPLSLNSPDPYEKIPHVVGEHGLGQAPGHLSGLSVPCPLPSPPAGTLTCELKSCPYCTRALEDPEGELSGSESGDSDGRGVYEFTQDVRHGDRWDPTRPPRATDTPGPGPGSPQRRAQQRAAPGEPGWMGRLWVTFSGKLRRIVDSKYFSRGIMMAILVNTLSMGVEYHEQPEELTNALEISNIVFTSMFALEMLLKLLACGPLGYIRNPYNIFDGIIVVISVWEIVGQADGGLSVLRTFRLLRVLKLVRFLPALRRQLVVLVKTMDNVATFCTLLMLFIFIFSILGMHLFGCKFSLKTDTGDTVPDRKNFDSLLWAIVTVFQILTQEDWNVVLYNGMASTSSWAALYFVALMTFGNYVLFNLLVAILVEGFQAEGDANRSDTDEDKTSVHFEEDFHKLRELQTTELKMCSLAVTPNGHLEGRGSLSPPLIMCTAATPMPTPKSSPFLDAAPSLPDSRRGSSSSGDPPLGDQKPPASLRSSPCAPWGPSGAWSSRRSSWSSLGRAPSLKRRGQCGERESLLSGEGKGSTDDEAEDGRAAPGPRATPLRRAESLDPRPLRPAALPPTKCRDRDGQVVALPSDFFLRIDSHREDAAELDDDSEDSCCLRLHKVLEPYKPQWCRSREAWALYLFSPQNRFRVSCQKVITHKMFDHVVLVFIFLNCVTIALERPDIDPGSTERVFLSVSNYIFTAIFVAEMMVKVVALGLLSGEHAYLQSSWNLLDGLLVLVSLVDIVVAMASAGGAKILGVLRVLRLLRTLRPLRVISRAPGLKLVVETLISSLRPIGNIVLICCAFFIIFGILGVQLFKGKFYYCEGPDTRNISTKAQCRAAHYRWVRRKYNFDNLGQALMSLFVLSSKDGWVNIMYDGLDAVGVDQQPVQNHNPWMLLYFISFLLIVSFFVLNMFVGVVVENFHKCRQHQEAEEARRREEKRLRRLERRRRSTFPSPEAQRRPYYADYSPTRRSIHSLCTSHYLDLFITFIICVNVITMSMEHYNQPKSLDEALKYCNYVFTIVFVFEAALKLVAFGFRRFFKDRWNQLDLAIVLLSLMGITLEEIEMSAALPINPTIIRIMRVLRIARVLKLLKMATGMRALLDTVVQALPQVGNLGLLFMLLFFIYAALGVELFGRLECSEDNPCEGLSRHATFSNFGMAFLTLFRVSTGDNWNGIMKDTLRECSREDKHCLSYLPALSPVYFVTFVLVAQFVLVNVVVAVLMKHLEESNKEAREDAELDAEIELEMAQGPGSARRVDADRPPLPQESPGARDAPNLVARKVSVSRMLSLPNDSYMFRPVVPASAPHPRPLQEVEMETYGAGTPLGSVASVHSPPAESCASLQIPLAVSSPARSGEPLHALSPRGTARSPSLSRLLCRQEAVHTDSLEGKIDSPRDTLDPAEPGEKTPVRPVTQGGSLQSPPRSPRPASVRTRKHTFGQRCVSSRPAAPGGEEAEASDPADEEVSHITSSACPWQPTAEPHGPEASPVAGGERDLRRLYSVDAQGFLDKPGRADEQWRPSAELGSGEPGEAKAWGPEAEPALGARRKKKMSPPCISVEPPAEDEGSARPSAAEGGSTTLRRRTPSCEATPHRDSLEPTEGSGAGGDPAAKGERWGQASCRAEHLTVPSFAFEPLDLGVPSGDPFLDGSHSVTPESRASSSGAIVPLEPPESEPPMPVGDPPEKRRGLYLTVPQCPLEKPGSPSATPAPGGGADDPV
Sequence of Kv11.1 (hERG) channel (Q12809 whole entry): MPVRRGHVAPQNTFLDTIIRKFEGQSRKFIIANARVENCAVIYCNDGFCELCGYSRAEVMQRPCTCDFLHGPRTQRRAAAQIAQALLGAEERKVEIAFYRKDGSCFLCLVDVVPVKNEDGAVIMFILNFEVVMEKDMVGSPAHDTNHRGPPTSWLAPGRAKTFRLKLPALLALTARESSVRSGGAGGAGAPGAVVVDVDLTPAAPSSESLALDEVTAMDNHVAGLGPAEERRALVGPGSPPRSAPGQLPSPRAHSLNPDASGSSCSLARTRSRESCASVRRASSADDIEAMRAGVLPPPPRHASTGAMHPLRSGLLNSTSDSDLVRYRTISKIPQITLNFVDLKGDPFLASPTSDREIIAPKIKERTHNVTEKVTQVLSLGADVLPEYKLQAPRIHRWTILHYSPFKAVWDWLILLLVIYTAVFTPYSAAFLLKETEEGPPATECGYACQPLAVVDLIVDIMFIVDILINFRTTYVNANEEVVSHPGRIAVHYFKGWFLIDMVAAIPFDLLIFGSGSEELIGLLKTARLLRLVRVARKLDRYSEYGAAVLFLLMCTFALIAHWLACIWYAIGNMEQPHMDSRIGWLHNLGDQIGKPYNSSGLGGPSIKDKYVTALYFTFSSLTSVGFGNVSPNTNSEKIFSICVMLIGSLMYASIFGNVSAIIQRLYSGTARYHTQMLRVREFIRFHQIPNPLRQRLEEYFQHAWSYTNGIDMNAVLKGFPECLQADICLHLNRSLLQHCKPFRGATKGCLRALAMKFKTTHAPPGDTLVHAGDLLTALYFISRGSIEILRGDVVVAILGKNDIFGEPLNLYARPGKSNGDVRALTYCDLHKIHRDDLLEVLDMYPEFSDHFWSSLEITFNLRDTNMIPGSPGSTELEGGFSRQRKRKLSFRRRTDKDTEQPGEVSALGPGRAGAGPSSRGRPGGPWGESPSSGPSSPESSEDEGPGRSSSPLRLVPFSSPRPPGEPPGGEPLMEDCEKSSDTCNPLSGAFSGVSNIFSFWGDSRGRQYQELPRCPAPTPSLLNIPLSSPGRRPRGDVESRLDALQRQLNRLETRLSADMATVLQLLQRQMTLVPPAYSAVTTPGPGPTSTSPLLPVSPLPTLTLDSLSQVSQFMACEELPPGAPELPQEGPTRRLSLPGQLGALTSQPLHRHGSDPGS
Sequence of α2B‐adrenoceptor (P18089 whole entry): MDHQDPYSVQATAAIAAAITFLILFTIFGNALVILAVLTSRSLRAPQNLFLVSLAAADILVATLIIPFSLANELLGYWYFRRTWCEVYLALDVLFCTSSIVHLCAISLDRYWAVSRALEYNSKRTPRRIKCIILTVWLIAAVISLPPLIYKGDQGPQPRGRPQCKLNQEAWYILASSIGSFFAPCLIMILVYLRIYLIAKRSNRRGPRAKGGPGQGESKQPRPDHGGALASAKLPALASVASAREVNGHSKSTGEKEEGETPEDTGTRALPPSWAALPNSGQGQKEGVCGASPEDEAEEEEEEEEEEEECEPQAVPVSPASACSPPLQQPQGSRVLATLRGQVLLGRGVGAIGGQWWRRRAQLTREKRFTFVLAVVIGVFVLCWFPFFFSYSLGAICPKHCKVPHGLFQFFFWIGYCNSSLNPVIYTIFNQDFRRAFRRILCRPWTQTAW

Cl.Clc1ccc(CCCOCCCN2CCCCC2)cc1 [pitolisant, 1‐{3‐[3‐(4‐chlorophenyl)propoxy]propyl}piperidine, hydrochloride]
maximum mean (90% CI) placebo-corrected increase in QTcF interval from baseline (ΔΔQTcF) (humans; 40 mg pitolisant hydrochloride, TQT study): 3.29 (0.35, 6.23) ms | Cmax (humans; 40 mg): 53 ± 27 ng/mL | maximum mean (90% CI) placebo-corrected increase in QTcF interval from baseline (ΔΔQTcF) (humans; 120 mg pitolisant hydrochloride, TQT study): 5.27 (2.35, 8.20) ms | Cmax (humans; 120 mg): 164 ± 63 ng/mL | maximum mean (90% CI) placebo-corrected increase in QTcF interval from baseline (ΔΔQTcF) (humans; 200 mg pitolisant hydrochloride, SAD study): 13.3 (8.1, 18.5) ms | maximum mean (90% CI) placebo-corrected increase in QTcF interval from baseline (ΔΔQTcF) (humans; 240 mg pitolisant hydrochloride, SAD study): 9.9 (4.7, 15.1) ms | Cmax (humans; 240 mg): 282 ± 47 ng/mL | concentration at 1 h (in vivo; after 50 μg·kg^−1·min^−1 1 h i.v. infusion): ~140 nM | concentration at 1 h (in vivo; after 150 μg·kg^−1·min^−1 1 h i.v. infusion): ~450 nM | effect on QTc interval [1]: devoid of any effect on QTc interval | pro-arrhythmic effect [1]: lacked any pro‐arrhythmic effect | pIC50 (CaV3.2; CaV3.2 ICaT, Hill curve fit with Hill coefficient of one, read-out: Fitted IC50): 4.59 | pIC50 (CaV3.2; Pitolisant IC50, CaV3.2, ICaT): ≤ 5.00 | fraction unbound (in vitro): ~0.04 | pKi (α2B‐adrenoceptor): 5.37 | pIC50 (Kv11.1 (hERG) channel): 5.89 | safety margin (hERG IC50 versus free drug concentration) (Kv11.1 (hERG) channel; assuming 96% protein-binding and free concentration of […] at 40 mg maximal therapeutic dose): around 100 | highest clinically relevant exposure [2]: 72 ng/mL | effect on dofetilide-induced increase in APD90 [3]: fully reversed | increase in APD90–20 vs. baseline ([3]; 3 μM): 192 ms | maximal increase in APD90 ([3]; 3 μM): 97 ms | increase in APD90–20 vs. baseline ([3]; 10 μM): 176 ms | effect on APD20 ([3]; 1, 3 or 10 μM): concentration‐dependent effect of decreasing APD20 | effect on RMP and APA ([3]; 1, 3 or 10 μM): little effect | effects on electrophysiological parameters of the action potential (rabbit Purkinje fibres; 1 μM): only minimal effects | change in APA (rabbit Purkinje fibres; 10 μM): −8 ± 3% | change in APD50 vs. the control (rabbit Purkinje fibres; 10 μM): −27 ± 4% | change in Vmax (rabbit Purkinje fibres; 10 μM): −17 ± 5% | change in resting RMP vs. the control (rabbit Purkinje fibres; 10 μM): −6 ± 1% | change in APD90 vs. the control (rabbit Purkinje fibres; 10 μM, non-significant): +9 ± 5% | pIC50 (rabbit Purkinje fibres; Oryctolagus cuniculus, purkinje, estimated from 27% decrease in APD50 at 10 μM): ~5.30
